For 30 compounds, IC50 results are on record in US10654832B2, “3-(benzoimidazol-2-YL)-indazole inhibitors of the Wnt signaling pathway and therapeutic uses thereof” (Samumed, LLC, priority 2013, dated 2020).

For this test, the system named is Wnt activity (wnt-responsive SP5 promoter luciferase reporter in SW480 cells). Nature of the test: Wnt activity reporter assay (SP5 promoter-firefly luciferase in SW480 cells). It is filed as cell-based. The settings on record: Homo sapiens; SW480 colon cancer cells with SP5 promoter luciferase reporter; 24 h after compound addition; half-log dilutions, three micromolar top concentration; normalized to DMSO; read-out: Wnt inhibition. From the text: The above synthesized compounds were screened using the assay procedure for Wnt activity described below.
Reporter cell lines were generated by stably transducing cells of cancer cell lines (e.g., colon cancer) with a lentiviral construct that include a wnt-responsive promoter driving expression of the firefly luciferase gene.
Lentiviral constructs were made in which the SP5 promoter, a promoter having eight TCF/LEF binding sites derived from the SP5 promoter, was linked upstream of the firefly luciferase gene. The lentiviral constructs included a hygromycin resistance gene as a selectable marker. The SP5 promoter construct was used to transduce SW480 cells, a colon cancer cell line having a mutated APC gene that generates a truncated APC protein, leading to de-regulated accumulation of β-catenin.
Cultured SW480 cells bearing a reporter construct were distributed at approximately 10,000 cells per well into 384 well multiwell plates. Compounds were then added to the wells in half-log dilutions using a three micromolar top concentration. A series of control wells for each cell type received only buffer and compound solvent. Twenty-four hours after the addition of compound, reporter activity for luciferases was assayed, for example, by addition of the BrightGlo luminescence reagent (Promega) and the Victor3 plate reader (Perkin Elmer). Readings were normalized to DMSO only treated cells, and normalized activities were then used for the IC50 calculations.
(In a reporter assay the amount or activity of a reporter protein is the signal.)

Where only a bound is given, the exact number is not on record here.

`CC(C)CC(=O)Nc1cncc(-c2ccc3[nH]nc(-c4nc5c(N6CCCCC6)cccc5[nH]4)c3c2)c1` [Compound 146, 3-Methyl-N-(5-(3-(4-(piperidin-1-yl)-1H-benzo[d]imidazol-2-yl)-1H-indazol-5-yl)pyridin-3-yl)butanamide]: the IC50 is 58 nM.

With `CCCCC(=O)Nc1cncc(-c2ccc3[nH]nc(-c4nc5c(-c6ccccn6)cccc5[nH]4)c3c2)c1` [Compound 138, N-(5-(3-(4-(Pyridin-2-yl)-1H-benzo[d]imidazol-2-yl)-1H-indazol-5-yl)pyridin-3-yl)pentanamide], the IC50 is 18 nM.

For the compound `O=C(Nc1cncc(-c2ccc3[nH]nc(-c4nc5c(-c6ccccn6)cccc5[nH]4)c3c2)c1)C1CCC1` [Compound 140, N-(5-(3-(4-(Pyridin-2-yl)-1H-benzo[d]imidazol-2-yl)-1H-indazol-5-yl)pyridin-3-yl)cyclobutanecarboxamide], the IC50 is 8 nM.

With `O=C(Nc1cncc(-c2ccc3[nH]nc(-c4nc5c(-c6ccncc6)cccc5[nH]4)c3c2)c1)C1CCCC1` [Compound 117, N-(5-(3-(4-(Pyridin-4-yl)-1H-benzo[d]imidazol-2-yl)-1H-indazol-5-yl)pyridin-3-yl)cyclopentanecarboxamide], the IC50 turned out to be 54 nM.

Turning to `CCCCC(=O)Nc1cncc(-c2ccc3[nH]nc(-c4nc5c(-c6ccncc6)cccc5[nH]4)c3c2)c1` [Compound 114, N-(5-(3-(4-(Pyridin-4-yl)-1H-benzo[d]imidazol-2-yl)-1H-indazol-5-yl)pyridin-3-yl)pentanamide], the IC50 is 67 nM.

For `CC(C)C(=O)Nc1cncc(-c2ccc3[nH]nc(-c4nc5ccccc5[nH]4)c3c2)c1` [Compound 225, N-(5-(3-(1H-Benzo[d]imidazol-2-yl)-1H-indazol-5-yl)pyridin-3-yl) isobutyramide], the IC50 was found to be 28 nM.

On to `CCCCC(=O)Nc1cncc(-c2ccc3[nH]nc(-c4nc5c(-c6cccc(F)c6)cccc5[nH]4)c3c2)c1` [Compound 18, N-(5-(3-(4-(3-Fluorophenyl)-1H-benzo[d]imidazol-2-yl)-1H-indazol-5-yl)pyridin-3-yl)pentanamide], for which the IC50 turned out to be 30 nM.

For the compound `O=C(Nc1cncc(-c2ccc3[nH]nc(-c4nc5c(-c6ccncc6)cccc5[nH]4)c3c2)c1)C1CCC1` [Compound 116, N-(5-(3-(4-(Pyridin-4-yl)-1H-benzo[d]imidazol-2-yl)-1H-indazol-5-yl)pyridin-3-yl)cyclobutanecarboxamide], the IC50 was found to be 23 nM.

On to `Cc1cn(-c2cccc3[nH]c(-c4n[nH]c5ccc(-c6cncc(NC(=O)C7CCCC7)c6)cc45)nc23)cn1` [Compound 189, N-(5-(3-(4-(4-Methyl-1H-imidazol-1-yl)-1H-benzo[d]imidazol-2-yl)-1H-indazol-5-yl)pyridin-3-yl)cyclopentanecarboxamide], for which the IC50 stood at 13 nM.

As to `O=C(Nc1cncc(-c2ccc3[nH]nc(-c4nc5c(-c6ccc(F)cc6)cccc5[nH]4)c3c2)c1)c1ccccc1` [Compound 35, N-(5-(3-(4-(4-Fluorophenyl)-1H-benzo[d]imidazol-2-yl)-1H-indazol-5-yl)pyridin-3-yl)benzamide], the IC50 was determined as 161 nM.

For the compound `O=C(Nc1cncc(-c2ccc3[nH]nc(-c4nc5c(-c6ccc(F)cc6)cccc5[nH]4)c3c2)c1)C1CCCCC1` [Compound 46, N-(5-(3-(4-(4-Fluorophenyl)-1H-benzo[d]imidazol-2-yl)-1H-indazol-5-yl)pyridin-3-yl)cyclohexanecarboxamide], the IC50 came out at 225 nM.

With `O=C(Nc1cncc(-c2ccc3[nH]nc(-c4nc5c(-c6ccccn6)cccc5[nH]4)c3c2)c1)C1CCCCC1` [Compound 142, N-(5-(3-(4-(Pyridin-2-yl)-1H-benzo[d]imidazol-2-yl)-1H-indazol-5-yl)pyridin-3-yl)cyclohexanecarboxamide], the IC50 came to 155 nM.

As for `CC(C)Nc1cncc(-c2ccc3[nH]nc(-c4nc5c(-c6ccncc6)cccc5[nH]4)c3c2)c1` [Compound 108, N-Isopropyl-5-(3-(4-(pyridin-4-yl)-1H-benzo[d]imidazol-2-yl)-1H-indazol-5-yl)pyridin-3-amine], the IC50 stood at 16 nM.

Regarding `c1ccc(CNCc2cncc(-c3ccc4[nH]nc(-c5nc6c(-c7cccnc7)cccc6[nH]5)c4c3)c2)cc1` [Compound 95, N-Benzyl-1-(5-(3-(4-(pyridin-3-yl)-1H-benzo[d]imidazol-2-yl)-1H-indazol-5-yl)pyridin-3-yl)methanamine], the IC50 came to 163 nM.

In the case of `Cc1ccncc1-c1ccc2[nH]nc(-c3nc4c(-c5cccc(F)c5)cccc4[nH]3)c2c1` [Compound 5, 3-(4-(3-Fluorophenyl)-1H-benzo[d]imidazol-2-yl)-5-(4-methylpyridin-3-yl)-1H-indazole], the IC50 is 34 nM.

On to `CN1CCN(c2cccc3[nH]c(-c4n[nH]c5ccc(-c6cncc(NC(=O)C7CCCC7)c6)cc45)nc23)CC1` [Compound 213, N-(5-(3-(4-(4-Methylpiperazin-1-yl)-1H-benzo[d]imidazol-2-yl)-1H-indazol-5-yl)pyridin-3-yl)cyclopentanecarboxamide], for which the IC50 amounted to 195 nM.

`CCCCC(=O)Nc1cncc(-c2ccc3[nH]nc(-c4nc5c(-c6ccc(F)cc6)cccc5[nH]4)c3c2)c1` [Compound 42, N-(5-(3-(4-(4-Fluorophenyl)-1H-benzo[d]imidazol-2-yl)-1H-indazol-5-yl)pyridin-3-yl)pentanamide]: the IC50 is 33 nM.

For `CC(C)CC(=O)Nc1cncc(-c2ccc3[nH]nc(-c4nc5c(-c6ccc(F)cc6)cccc5[nH]4)c3c2)c1` [Compound 26, N-(5-(3-(4-(4-Fluorophenyl)-1H-benzo[d]imidazol-2-yl)-1H-indazol-5-yl)pyridin-3-yl)-3-methylbutanamide], the IC50 was 179 nM.

In the case of `CN(C)Cc1cncc(-c2ccc3[nH]nc(-c4nc5c(-c6ccsc6)cccc5[nH]4)c3c2)c1` [Compound 253, N,N-Dimethyl-1-(5-(3-(4-(thiophen-3-yl)-1H-benzo[d]imidazol-2-yl)-1H-indazol-5-yl)pyridin-3-yl)methanamine], the IC50 was determined as 7 nM.

Turning to `O=C(Nc1cncc(-c2ccc3[nH]nc(-c4nc5ccccc5[nH]4)c3c2)c1)C1CC1` [Compound 235, N-(5-(3-(1H-Benzo[d]imidazol-2-yl)-1H-indazol-5-yl)pyridin-3-yl) cyclopropanecarboxamide], the IC50 was 25 nM.

With `CCCC(=O)Nc1cncc(-c2ccc3[nH]nc(-c4nc5c(-c6cccnc6)cccc5[nH]4)c3c2)c1` [Compound 89, N-(5-(3-(4-(Pyridin-3-yl)-1H-benzo[d]imidazol-2-yl)-1H-indazol-5-yl)pyridin-3-yl)butyramide], the IC50 worked out at 4 nM.

In the case of `O=C(Nc1cncc(-c2ccc3[nH]nc(-c4nc5c(N6CCCCC6)cccc5[nH]4)c3c2)c1)C1CCCCC1` [Compound 166, N-(5-(3-(4-(Piperidin-1-yl)-1H-benzo[d]imidazol-2-yl)-1H-indazol-5-yl)pyridin-3-yl)cyclohexanecarboxamide], the IC50 was found to be 445 nM.

On to `CN(C)Cc1cncc(-c2ccc3[nH]nc(-c4nc5c(-c6cccc(F)c6)cccc5[nH]4)c3c2)c1` [Compound 13, 1-(5-(3-(4-(3-Fluorophenyl)-1H-benzo[d]imidazol-2-yl)-1H-indazol-5-yl)pyridin-3-yl)-N,N-dimethylmethanamine], for which the IC50 is 11 nM.

Regarding `c1cncc(-c2ccc3[nH]nc(-c4nc5ccccc5[nH]4)c3c2)c1` [Compound 220], the IC50 is 165 nM.

As for `c1ccc(-c2cccc3[nH]c(-c4n[nH]c5ccc(-c6cncc(CN7CCCC7)c6)cc45)nc23)nc1` [Compound 134, 3-(4-(Pyridin-2-yl)-1H-benzo[d]imidazol-2-yl)-5-(5-(pyrrolidin-1-ylmethyl)pyridin-3-yl)-1H-indazole], the IC50 was found to be 219 nM.

With `Cc1cn(-c2cccc3[nH]c(-c4n[nH]c5ccc(-c6cncc(CNCc7ccccc7)c6)cc45)nc23)cn1` [Compound 191, N-Benzyl-1-(5-(3-(4-(4-methyl-1H-imidazol-1-yl)-1H-benzo[d]imidazol-2-yl)-1H-indazol-5-yl)pyridin-3-yl)methanamine], the IC50 stood at 138 nM.

Take `CC(C)(C)CC(=O)Nc1cncc(-c2ccc3[nH]nc(-c4nc5c(-c6cccnc6)cccc5[nH]4)c3c2)c1` [Compound 88, 3,3-Dimethyl-N-(5-(3-(4-(pyridin-3-yl)-1H-benzo[d]imidazol-2-yl)-1H-indazol-5-yl)pyridin-3-yl)butanamide]: the IC50 worked out at 135 nM.

With `O=C(Nc1cncc(-c2ccc3[nH]nc(-c4nc5c(-c6ccncc6)cccc5[nH]4)c3c2)c1)C1CCCCC1` [Compound 118, N-(5-(3-(4-(Pyridin-4-yl)-1H-benzo[d]imidazol-2-yl)-1H-indazol-5-yl)pyridin-3-yl)cyclohexanecarboxamide], the IC50 was 1460 nM.

Consider `O=C(Cc1ccccc1)Nc1cncc(-c2ccc3[nH]nc(-c4nc5c(-c6cccc(F)c6)cccc5[nH]4)c3c2)c1` [Compound 10, N-(5-(3-(4-(3-Fluorophenyl)-1H-benzo[d]imidazol-2-yl)-1H-indazol-5-yl)pyridin-3-yl)-2-phenylacetamide], for which the IC50 worked out at 69 nM.

In the case of `Nc1cncc(-c2ccc3[nH]nc(-c4nc5c(-c6ccoc6)cccc5[nH]4)c3c2)c1` [Compound 267, 5-(3-(4-(Furan-3-yl)-1H-benzo[d]imidazol-2-yl)-1H-indazol-5-yl) pyridin-3-amine], the IC50 is not below 4150 nM.
